Laboratory results reported in patent publication US20140314757A1, “PHYTOCANNABINOIDS FOR USE IN THE TREATMENT OF BREAST CANCER” (priority 2011, published 2014).

Key:
BT474 cells = assay: MTT cell viability, BT474 cells; assay type: cell-based, human; details: for cell viability, increasing concentrations: 72 h, concentration-related (FIG. 2); for cell viability at low concentrations: <1 μM, alone or 1:1 combination, 72 h (FIG. 3)
Protocol: (§1) The effect of THC and CBD, alone and in combination, on the viability of two different Her2-positive human breast cancer cell lines: SkBr3 and BT474 were tested.
(§2) Briefly, cells were incubated in RPMI (SkBr3) or DMEM (BT474) supplemented with 10% foetal bovine serum. After 12 hours of serum starvation, the cells were challenged with different concentrations of THC or CBD (or the corresponding vehicle, DMSO) for 72 h. Cell viability was then determined by the colorimetric MTT test.
The analysis of the combined drug effect was performed with the CalcuSyn v2.0 software. To determine whether the combination of THC and CBD was additive or synergistic, we calculated different combination indexes (Cis) using the algorithm by Chou and Talalay with the CalcuSyn v2.0 software.
For each ED, the software (i) plots a line connecting the concentrations of THC and CBD that produce that particular effect when administered as single agents, and (ii) generates a point that indicates the concentration of THC and CBD, applied as a combination, required to produce such effect. If the line is straight, this means that the two compounds are producing a simple additive effect and the point should appear within it.
The effect of THC and CBD, alone and in combination at different ratios, on the viability of BT474 cells was examined.
Cells were incubated in DMEM supplemented with 10% foetal bovine serum. After 12 hours of serum starvation, cells were challenged for 72 h as described in Table 3.1. Cell viability was then determined by the colorimetric MTT test.

SkBr3 cells = assay: MTT cell viability, SkBr3 cells; assay type: cell-based, human; details: for cell viability, increasing concentrations: 72 h, concentration-related (FIG. 2)
Protocol: as §1, §2

[1] = test system: 231-Met (highly metastatic 231-Her2-derived cell line); assay: MTT cell viability, highly metastatic 231-Her2 cells; assay type: cell-based, human; details: for cell viability, increasing concentrations: 72 h (FIG. 9); for IC50 values, cell viability: 72 h, THC compared with CBD (FIG. 9)
Protocol: The effect of THC and CBD on the viability of a series of Her2-positive human breast cancer cell lines: MDA-MB-231 cells that ectopically overexpress Her2 (231-Her2), a highly metastatic version of 231-Her2 (231-Met), and three different trastuzumab-resistant 231-Her2-derived cell lines (TrR1, TrR2 and TrR3).
Cells were incubated in DMEM supplemented with 10% foetal bovine serum. After 12 hours of serum starvation, cells were challenged with different concentrations of THC or CBD (or the corresponding vehicle, DMSO) for 72 h. Cell viability was then determined by the colorimetric MTT test.
(§3) Cells were incubated in the presence of cannabinoids for 48 h and cell viability was assessed by the MTT colorimetric test.

MDA-MB-231 cells = assay: MTT cell viability, MDA-MB-231 cells; assay type: cell-based, human; details: 48 h (FIG. 11)
Protocol: as §3

[2] = test system: MDA-MB-231 cells stably overexpressing Her2 (231-Her2); assay: MTT cell viability, 231-Her2 cells; assay type: cell-based, human; details: 48 h (FIGS. 13 and 14)
Protocol: as §3

id-1 gene expression = details: MDA-MB231 and MDA-MB436 cell lines; cited from earlier work

Molecule | cell viability, increasing concentrations (BT474 cells) | cell viability at low concentrations (BT474 cells) | cell viability, increasing concentrations (SkBr3 cells) | cell viability, increasing concentrations [1] | IC50 values, cell viability [1] | cell viability, single agents (MDA-MB-231 cells) | cell viability, single agents, increasing concentrations [2] | id-1 gene expression (id-1 gene expression) | effect of CB2 antagonist on THC-induced decrease of viability (BT474 cells; 6 μM THC with 2 μM SR144528, 72 h (FIG. 1C)) | effect of CB2 antagonist on THC-induced decrease of viability (SkBr3 cells; 3 μM THC with 2 μM SR144528, 72 h (FIG. 1C)) | cell viability upon exposure to THC (BT474 cells; 6 μM THC, 72 h (FIG. 1C)) | cell viability upon exposure to THC (SkBr3 cells; 3 μM THC, 72 h (FIG. 1C))
C=C(C)[C@@H]1CCC(C)=C[C@H]1c1c(O)cc(CCCCC)cc1O [CBD, cannabidiol] | reduced their viability | no effect on cell viability | reduced their viability | decreased its viability | virtually identical | sensitive | decreases | inhibit |  |  |  | 
SR144528 |  |  |  |  |  |  |  |  | prevented | prevented |  | 
CCCCCc1cc(O)c2c(c1)OC(C)(C)[C@@H]1CCC(C)=C[C@@H]21 [THC, tetrahydrocannabinol] | reduced their viability | no effect on cell viability | reduced their viability | decreased its viability | virtually identical | sensitive | decreases |  |  |  | decreases | decreases
